From the NIST ThermoML archive (doi:10.1016/j.fluid.2005.05.023)
Numbers after ± are expanded uncertainties.

Experiment: xn = mol fraction of the nth substance listed
Conditions: Liquid, Vibrating tube method, x1 = 1

CCO [ethanol] + Cc1ccccc1
mass density [kg/m3]
Conditions | 100 kPa | 5000 kPa | 10000 kPa | 15000 kPa | 20000 kPa | 25000 kPa | 30000 kPa | 35000 kPa | 40000 kPa | 45000 kPa
283.15 K | 798 ± 0.2 | 802 ± 0.3 | 805.9 ± 0.3 | 809.5 ± 0.3 | 813 ± 0.3 | 816.4 ± 0.3 | 819.7 ± 0.4 | 822.8 ± 0.4 | 825.9 ± 0.4 | 828.8 ± 0.4
293.15 K | 789.5 ± 0.2 | 793.7 ± 0.3 | 797.8 ± 0.3 | 801.6 ± 0.3 | 805.3 ± 0.3 | 808.9 ± 0.3 | 812.3 ± 0.4 | 815.6 ± 0.4 | 818.7 ± 0.4 | 821.8 ± 0.4
303.15 K | 780.9 ± 0.2 | 785.3 ± 0.3 | 789.6 ± 0.3 | 793.7 ± 0.3 | 797.5 ± 0.3 | 801.3 ± 0.3 | 804.8 ± 0.4 | 808.2 ± 0.4 | 811.5 ± 0.4 | 814.7 ± 0.4
313.15 K | 772.1 ± 0.2 | 776.8 ± 0.3 | 781.3 ± 0.3 | 785.6 ± 0.3 | 789.6 ± 0.3 | 793.5 ± 0.4 | 797.2 ± 0.4 | 800.8 ± 0.4 | 804.2 ± 0.4 | 807.6 ± 0.5
323.15 K | 763.3 ± 0.2 | 768.3 ± 0.3 | 773 ± 0.3 | 777.6 ± 0.3 | 781.8 ± 0.3 | 785.9 ± 0.4 | 789.7 ± 0.4 | 793.5 ± 0.4 | 797.1 ± 0.4 | 800.5 ± 0.5
333.15 K | 754 ± 0.2 | 759.3 ± 0.3 | 764.3 ± 0.3 | 769.1 ± 0.3 | 773.6 ± 0.3 | 777.8 ± 0.4 | 781.9 ± 0.4 | 785.8 ± 0.4 | 789.5 ± 0.5 | 793.1 ± 0.5
343.15 K | 744.5 ± 0.2 | 750.1 ± 0.3 | 755.5 ± 0.3 | 760.5 ± 0.3 | 765.3 ± 0.4 | 769.8 ± 0.4 | 774 ± 0.4 | 778.1 ± 0.4 | 782 ± 0.5 | 785.7 ± 0.5
353.15 K | – | 740.6 ± 0.3 | 746.4 ± 0.3 | 751.7 ± 0.3 | 756.7 ± 0.4 | 761.5 ± 0.4 | 766 ± 0.4 | 770.2 ± 0.4 | 774.3 ± 0.5 | 778.2 ± 0.5
